Common to all, as to details: pH 7.35
The target in experiment [1] is Bifunctional protein GlmU (Haemophilus influenzae (strain ATCC 51907 / DSM 11121 / KW20 / Rd), UniProt P43889). As to the kind of experiment: Inhibition Assay. An excerpt: (§1) Inhibition assay using GlmU bifuncation enzyme with various bacterial strains.
Experiment [2] concerns the target Bifunctional protein GlmU (Streptococcus pneumoniae (strain ATCC BAA-255 / R6), UniProt Q8DQ18). Put plainly: Inhibition Assay.
Text: as §1

The target of experiment [3] is Bifunctional protein GlmU (Staphylococcus aureus (strain COL), UniProt Q5HIH6). As to the kind of experiment: Inhibition Assay.
Text: as §1

The target in experiment [4] is Bifunctional protein GlmU (Escherichia coli (strain K12), UniProt P0ACC7). As to the kind of experiment: Inhibition Assay.
Text: as §1

In experiment [5] the target is Bifunctional protein GlmU (Escherichia coli) (UniProt P0ACC7). Put plainly: Inhibition assay using GlmU bifuncation enzyme with various bacterial strains.

The structures appear in SMILES notation. pIC50, pKd: −log10 of the molar value. Where only a bound is given, the exact number is not on record here.

By pIC50 is commonly meant the negative decadic logarithm of the IC50, by convention in mol/L. The pKd is the Kd on a negative log10 scale, so that one unit is a factor of ten. Lower therefore signals a high Kd.

Bifunctional protein GlmU (Escherichia coli (strain K12), UniProt P0ACC7), sequence (P0ACC7 whole entry): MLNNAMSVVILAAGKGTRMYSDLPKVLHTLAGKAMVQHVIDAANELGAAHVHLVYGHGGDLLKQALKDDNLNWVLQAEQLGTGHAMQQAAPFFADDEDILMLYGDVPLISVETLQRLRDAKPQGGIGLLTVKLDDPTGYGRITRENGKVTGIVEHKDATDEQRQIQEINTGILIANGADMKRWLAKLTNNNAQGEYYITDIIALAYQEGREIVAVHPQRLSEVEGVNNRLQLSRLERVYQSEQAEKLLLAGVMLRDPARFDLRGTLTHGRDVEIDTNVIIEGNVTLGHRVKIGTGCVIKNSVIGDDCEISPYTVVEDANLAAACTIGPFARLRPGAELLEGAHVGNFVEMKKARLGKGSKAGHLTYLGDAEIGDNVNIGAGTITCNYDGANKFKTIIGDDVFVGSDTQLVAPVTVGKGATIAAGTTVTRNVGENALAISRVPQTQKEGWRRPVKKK
Bifunctional protein GlmU (Streptococcus pneumoniae (strain ATCC BAA-255 / R6), UniProt Q8DQ18), sequence (Q8DQ18 whole entry): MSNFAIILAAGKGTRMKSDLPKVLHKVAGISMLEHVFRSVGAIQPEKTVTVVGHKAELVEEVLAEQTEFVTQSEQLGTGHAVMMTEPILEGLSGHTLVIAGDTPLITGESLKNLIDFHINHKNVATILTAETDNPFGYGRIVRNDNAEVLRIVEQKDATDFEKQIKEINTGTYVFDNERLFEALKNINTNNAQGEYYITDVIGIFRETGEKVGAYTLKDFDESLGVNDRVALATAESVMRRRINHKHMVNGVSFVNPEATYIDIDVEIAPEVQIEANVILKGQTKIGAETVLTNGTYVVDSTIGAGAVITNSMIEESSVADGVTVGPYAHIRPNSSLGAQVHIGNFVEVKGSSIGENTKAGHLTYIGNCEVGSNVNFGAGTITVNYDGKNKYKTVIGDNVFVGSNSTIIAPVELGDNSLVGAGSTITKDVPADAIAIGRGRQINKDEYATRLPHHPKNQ
Bifunctional protein GlmU (Staphylococcus aureus (strain COL), UniProt Q5HIH6), sequence (Q5HIH6 whole entry): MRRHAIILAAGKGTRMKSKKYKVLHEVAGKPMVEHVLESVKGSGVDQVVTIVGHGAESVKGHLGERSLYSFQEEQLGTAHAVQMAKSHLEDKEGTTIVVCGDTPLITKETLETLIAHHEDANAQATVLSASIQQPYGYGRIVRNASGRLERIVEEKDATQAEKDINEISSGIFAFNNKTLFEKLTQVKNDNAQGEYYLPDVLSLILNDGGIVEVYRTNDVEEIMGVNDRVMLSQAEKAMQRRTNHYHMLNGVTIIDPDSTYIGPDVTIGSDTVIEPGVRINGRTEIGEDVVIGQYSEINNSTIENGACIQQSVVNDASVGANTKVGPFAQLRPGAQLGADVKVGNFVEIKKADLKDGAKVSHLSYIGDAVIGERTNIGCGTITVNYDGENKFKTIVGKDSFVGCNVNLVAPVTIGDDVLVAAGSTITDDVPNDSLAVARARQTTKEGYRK
Bifunctional protein GlmU (Haemophilus influenzae (strain ATCC 51907 / DSM 11121 / KW20 / Rd), UniProt P43889), sequence (P43889 whole entry): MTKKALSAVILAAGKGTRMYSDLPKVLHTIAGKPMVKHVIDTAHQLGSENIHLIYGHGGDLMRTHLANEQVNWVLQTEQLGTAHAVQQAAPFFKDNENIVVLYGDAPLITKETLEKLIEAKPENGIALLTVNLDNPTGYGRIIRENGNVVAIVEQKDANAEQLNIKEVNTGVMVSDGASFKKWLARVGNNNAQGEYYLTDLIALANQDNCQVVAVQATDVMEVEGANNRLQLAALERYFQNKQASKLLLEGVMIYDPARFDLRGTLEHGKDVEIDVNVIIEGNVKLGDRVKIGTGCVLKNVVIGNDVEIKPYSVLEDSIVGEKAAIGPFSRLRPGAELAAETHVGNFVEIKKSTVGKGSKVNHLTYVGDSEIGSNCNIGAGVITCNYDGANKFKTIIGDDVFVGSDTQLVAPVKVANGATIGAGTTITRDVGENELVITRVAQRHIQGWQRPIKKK
Bifunctional protein GlmU (Escherichia coli), sequence (P0ACC7 whole entry, looked up): as the sequence (P0ACC7 whole entry) above

In the case of `COc1cc(OC)c(S(=O)(=O)N(c2ccccc2)c2ccc(N)cc2)cc1NC(=O)CCC(=O)O` [Sulfonamide, 3], the pIC50 in experiment [1] is 6.40; in experiment [2] it was 4.40; in experiment [3] it was < 3.70.

Take `COc1cc(OC)c(S(=O)(=O)N2c3ccccc3CC2C)cc1NC(C)=O` (stereo not drawn): the pIC50 was 5.68 in experiment [4], 5.11 in experiment [1], < 3.70 in experiment [2] and < 3.70 in experiment [3].

For the compound `COc1cc(OC)c(S(=O)(=O)N2c3ccccc3Oc3ccccc32)cc1NC(=O)CCC(=O)O` [Sulfonamide, 5], the negative logarithm of the IC50 (pIC50) in experiment [4] is 8.15; in experiment [1] it was 7.64; in experiment [2] it was 4.82; in experiment [3], < 3.70.

On to `COc1cc(OC)c(S(=O)(=O)N(C)c2ccccc2)cc1NC(C)=O`, for which the pKd in experiment [5] is 5.72. Also, the pIC50 is 5.19 in experiment [1] and < 3.70 in experiment [2].

Turning to `COc1cc(O)c(S(=O)(=O)N2c3ccccc3CCC2C)cc1NC(=O)CCC(=O)O` (stereo not drawn) [Sulfonamide, 4], the pIC50 in experiment [4] was 7.24; in experiment [1] it was 6.55; in experiment [2], 5.33; in experiment [3], < 3.70.

Values taken from BindingDB's records for doi:10.1074/jbc.M111.274068 (Astrazeneca, 2011).
